From patent US20060134064A1, “Combined treatment with interferon-alpha and an epidermal growth factor receptor kinase inhibitor” (priority 2004, published 2006)
Like-named read-outs stand apart in the source and are kept apart here.

Columns and labels:
BL-17/0/X1 = assay: Crystal violet nuclear staining assay, bladder cancer cell line BL-17/0/X1; format: cell-based; details: 2.5 μg/ml erlotinib, 96 h
Text: (§1) It is known that 40-60% of bladder cancers over-express EGFR which provides an opportunity for targeted therapy.

[1] = system: bladder cancer cell lines; details: 10 μg/ml erlotinib; 8 of 9 cell lines
Description: Three different experimental schedules were performed: Single drug exposure over a range of concentrations of erlotinib, combination with IFN-α, and pre-treatment with IFN-α followed by erlotinib combined with IFN-α.
Cells were grown in 24-well plates and the antiproliferative effect was measured by crystal violet nuclear staining assay.

BL-17/2 = assay: Crystal violet nuclear staining assay, bladder cancer cell line BL-17/2; format: cell-based; details: 2.5 μg/ml erlotinib, 96 h
Text: as §1

HT1376 = assay: Crystal violet nuclear staining assay, bladder cancer cell line HT1376; format: cell-based; details: 2.5 μg/ml erlotinib, 96 h
Text: as §1

MGHU3 = assay: Crystal violet nuclear staining assay, bladder cancer cell line MGHU3; format: cell-based; details: 2.5 μg/ml erlotinib, 96 h
Text: as §1

HER1/EGFR = assay: Cell-surface HER1/EGFR expression by immunofluorescent flow cytometry after IFNα treatment; format: cell-based, human; details: IFNα 100 IU/mL
Description: The cell-surface HER1/EGFR levels at 72 h and 96 h of culture, with or without IFN-α (50 or 100 IU/ml), were measured by immunofluorescent flow cytometry. Cells were seeded in 60×15 mm dishes (FALCON™, BD) and treated with 100 IU/mL of IFN-α. The treated and untreated cells were harvested at different time intervals using 0.02% EDTA in PBS, then washed twice with ice-cold PBS and counted. The mouse monoclonal antibody against the extracellular domain of human HER1/EGFR (Catlog No: MO886, DAKO) diluted 1 in 100 in PBS was added to the cells (1×10^6 cells in 100 μL volume), while an irrelevant IgG 2b was used as the isotype-matched antibody control. After 60 min on ice, cells were washed and incubated with 100 μL of fluorescein-isothiocyanate (FITC)-conjugated goat-anti-mouse IgG (Catlog No: 81-6511, ZYMED), 1 in 200 dilution in PBS, on ice for 30 min in the dark. The cells were then washed again twice and resuspended in 1% formaldehyde in PBS. Cell surface immunofluorescence was analysed on a FACSCalibur (BD) using CELLQuest software equipped with a 5 W argon ion laser tuned to 488 nm at 200 mW. Levels of protein expression were estimated as the geometric mean of fluorescence intensity (MFI) of anti-HER1/EGFR minus that of the isotype-matched antibody control. Ten thousand singlet and viable cells of the individual treated and control samples were measured. Duplicate experiments with triplicate samples were performed for all cells.
Cell-surface HER1/EGFR expression by untreated cell lines: All cell lines were measured first to obtain an untreated level of HER1/EGFR. Cells were harvested after 72 h of culture and measured by flow cytometry. The HER1/EGFR value was calculated as the geometric mean fluorescence intensity of anti-HER1/EGFR detection minus that of isotype control. SW620 cells were HER1/EGFR-negative. Other cell lines including DLD-1, HCT116, HT29, KM12SM, LIM2099, LIM2408, LOVO and SW480 all positively expressed HER1/EGFR.
The relationship between HER1/EGFR expression and IFNα treatment was assessed in all cell lines. Cells were all cultured with or without 100 IU/mL of IFNα (which mimics serum levels in humans given subcutaneous interferon (Robinson S. P., et al. (1990) Breast Cancer Res. Treat.; 5:95-101) for 72 and 96 h. The cell-surface HER1/EGFR expression at 72 h of culture from untreated and treated groups of individual cell lines detected using anti-HER1/EGFR antibody minus isotype control is shown in FIG. 1. IFNα treatment was associated with significant up-regulation of cell-surface HER1/EGFR expression in 7 of 8 HER1/EGFR-positive cell lines, including DLD-1 (HER1/EGFR level (mean plus/minus standard deviation of the mean) treated versus that untreated: 17.89+0.60/10.86+0.51, paired t test, p=0.005; 95% confidence interval of the difference: 4.88−9.16), HCT116 (22.75+0.79/7.80+0.22, p<0.001; 13.52−16.36), HT29 (11.12+0.20/8.58+0.24, p=0.004; 1.82−3.27), LIM2099 (22.19+0.56/12.82+0.52, p=0.001; 7.87−10.86), LIM2408 (22.93+0.53/10.77+0.21, p=0.001; 10.35−13.97), LOVO (14.77+0.34/8.12+0.25, p=0.003; 5.2−8.1), and SW480 (27.09+0.76/14.10+0.33, p=0.002; 10.66−15.32) cells. In contrast, HER1/EGFR expression levels were not increased in KM12SM cells after IFNα treatment. […] Consistently, at 96 h of culture the cell-surface HER1/EGFR expression from untreated and treated groups of individual cell lines followed the same trend. Since up-regulation of HER1/EGFR expression was sustained between 72 and 96 h, we thus chose 72 h for IFNα pretreatment and 96 h for combination treatment introduced below.

colorectal cancer = details: cited from earlier work

With `C#Cc1cccc(Nc2ncnc3cc(OCCOC)c(OCCOC)cc23)c1` [erlotinib, [6,7-bis(2-methoxyethoxy)-4-quinazolin-4-yl]-(3-ethynylphenyl)amine] the “growth rate of control cells” value (BL-17/0/X1) was < 60%, the “growth rate of control” value [1] was < 60% and the “growth rate of control cells” value (BL-17/2) was < 60%. The “growth rate of control cells” value (HT1376) was < 60% and the “growth rate of control cells” value (MGHU3) was < 60%.
For IFNα, the “HER1/EGFR level (geometric mean fluorescence intensity minus isotype control), treated” value (HER1/EGFR; DLD-1 cells, 72 h, mean plus/minus SD) was 17.89 ± 0.60, the “HER1/EGFR level (geometric mean fluorescence intensity minus isotype control), treated” value (HER1/EGFR; HCT116 cells, 72 h, mean plus/minus SD) was 22.75 ± 0.79 and the “Induction of HER1/EGFR expression by IFNα treatment” value (HER1/EGFR; HER1/EGFR-negative SW620 cells, 72 h) was “unable to induce HER1/EGFR expression”. For the same molecule, the “HER1/EGFR level (geometric mean fluorescence intensity minus isotype control), treated” value (HER1/EGFR; HT29 cells, 72 h, mean plus/minus SD) was 11.12 ± 0.20, the “HER1/EGFR expression levels after IFNα treatment” value (HER1/EGFR; KM12SM cells, 72 h) was “not increased” and the “HER1/EGFR level (geometric mean fluorescence intensity minus isotype control), treated” value (HER1/EGFR; LIM2099 cells, 72 h, mean plus/minus SD) was 22.19 ± 0.56. The “HER1/EGFR level (geometric mean fluorescence intensity minus isotype control), treated” value (HER1/EGFR; LIM2408 cells, 72 h, mean plus/minus SD) was 22.93 ± 0.53, the “HER1/EGFR level (geometric mean fluorescence intensity minus isotype control), treated” value (HER1/EGFR; LOVO cells, mean plus/minus SD (FIG. 1: LOVO measured at 24 h)) was 14.77 ± 0.34 and the “HER1/EGFR level (geometric mean fluorescence intensity minus isotype control), treated” value (HER1/EGFR; SW480 cells, 72 h, mean plus/minus SD) was 27.09 ± 0.76.
For `O=c1[nH]cc(F)c(=O)[nH]1` [5-fluorouracil], the response rates (colorectal cancer; single-agent treatment, advanced colorectal cancer) is given as “about 10%”.
In the case of `O=C1[O][Pt]2([NH][C@@H]3CCCC[C@H]3[NH]2)[O]C1=O` [oxaliplatin], the response rates (colorectal cancer; combined with 5-FU and leucovorin, first-line treatment for colorectal cancer) is given as 25-40%.
